Among the data in the RepoRT retention time repository are LC retention time values, retold here.

The nature of this data set: RP, Thermo Scientific Hypersil GOLD, 1.9 µm, 40 °C, 0.4 mL/min; A: water + 0.1% formic acid, pH 3; B: acetonitrile + 0.1% formic acid, pH 3; gradient (min/%B) 0/0 1/0 11/100 13/100 14/0 16/0. Conditions: stereoisomer not certain.

Structures can show the parent of a compound that is named as a salt.

With `O=CCC(O)C(O)CO` (centres undefined), the LC retention time was found to be 0.82 min.
Regarding `CC(C)C(O)C(=O)O` (centres undefined), the LC retention time worked out at 4.13 min.
Take `O=C(O)CCCCC1CCSS1` (racemic): the LC retention time is 7.53 min.
The value for `C#CC1(O)CCC2C3CCc4cc(O)ccc4C3CCC21C` (racemic) was 8.17 min; that for `CC(N)(Cc1cnc[nH]1)C(=O)O` (racemic) [Alpha-methyl-DL-histidine dihydrochloride] was 0.61 min; that for `[NH3+]C(C(=O)[O-])C(O)c1ccccc1` (racemic) [L-Threo-3-Phenylserine (DL-3-Phenylserine)] was 1.14 min.
With `CC(=O)NC(C(=O)O)C(C)C` (racemic) [N-acetyl-DL-valine], the LC retention time worked out at 4.62 min.
Regarding `O=C(O)CC(Cc1ccccc1)C(=O)O` (racemic) [dl-benzylsuccinic acid], the LC retention time was 6.38 min.
Regarding `Oc1cc(O)c2c(c1)OC(c1ccc(O)c(O)c1)C(O)C2` (single isomer, unassigned; (+)) [(+)-Catechin hydrate], the LC retention time turned out to be 4.73 min.
The value for `O=C(OC1Cc2c(O)cc(O)cc2OC1c1cc(O)c(O)c(O)c1)c1cc(O)c(O)c(O)c1` (single isomer, unassigned; (-)) [(-)-Epigallocatechin gallate] was 5.05 min; that for `CN1C2CC(OC(=O)C(CO)c3ccccc3)CC1C1OC12` (single isomer, unassigned; (-)) [(-)-Scopolamine hydrochloride] was 4.91 min.
Turning to `O=C(O)CC(=O)CC(=O)O` [1-3-Acetonedicarboxylic acid], the LC retention time was found to be 0.8 min.
Then `OCC1OCC(O)C(O)C1O` [1-5-Anhydro-D-sorbitol], with 0.7 min; and `Cn1c(=O)[nH]c2[nH]c(=O)n(C)c2c1=O` [1-7-Dimethyluric acid], with 4.27 min; and `NC1(C(=O)O)CC1` [1-AMINOCYCLOPROPANECARBOXYLATE], with 0.64 min.
Take `O=C(O)c1ccc2ccccc2c1[O-]` [1-HYDROXY-2-NAPHTHOATE]: the LC retention time was 8.24 min.
The value for `Cn1cnc(C[C@H](N)C(=O)O)c1` [1-METHYL-L-HISTIDINE] was 0.59 min.
The value for `Cn1cnc2c(ncn2C2OC(CO)C(O)C2O)c1=N` (centres undefined) [1-METHYLADENOSINE] was 3.82 min; that for `C[n+]1cccc(C(N)=O)c1` [1-METHYLNICOTINAMIDE] was 0.63 min.
With `Nc1cccc2ccccc12` [1-NAPHTHYLAMINE], the LC retention time amounted to 5.87 min.
As for `CC(=O)c1ccc(O)cc1O` [2'-4'-DIHYDROXYACETOPHENONE], the LC retention time was determined as 6.1 min.
On to `COC1C(O)C(CO)OC1n1cnc2c(=O)[nH]cnc21` (centres undefined) [2'-O-Methylinosine], for which the LC retention time is 3.73 min.
Turning to `CC(C)(CCC(=O)O)C(=O)O` [2-2-Dimethylglutaric acid], the LC retention time was found to be 5.21 min.
The value for `CC(C)(CC(=O)O)C(=O)O` [2-2-Dimethylsuccinic acid] was 4.85 min; that for `O=C(O)c1cccc(O)c1O` [2-3-DIHYDROXYBENZOATE] was 5.01 min.
Then `O=c1[nH]c(=O)c2nccnc2[nH]1` [2-4-DIHYDROXYPTERIDINE], with 0.96 min; and `O=C(O)c1ccc(O)cc1O` [2-4-Dihydroxybenzoic acid], with 4.88 min; and `O=C(O)c1cc(O)ccc1O` [2-5-DIHYDROXYBENZOATE], with 4.52 min.
For the molecule `O=c1cccc(O)[nH]1` [2-6-DIHYDROXYPYRIDINE], the LC retention time was found to be 1.09 min.
For the molecule `O=C(O)c1c(O)cccc1O` [2-6-Dihydroxybenzoic acid], the LC retention time is 5.12 min.
With `O=c1ccc2cc(O)ccc2[nH]1` [2-6-quinolinediol], the LC retention time amounted to 4.44 min.
In the case of `CC(=O)N[C@@H]1[C@@H](O)[C@H](O)[C@@H](CO)O[C@H]1N` [2-ACETAMIDO-2-DEOXY-BETA-D-GLUCOSYLAMINE], the LC retention time was found to be 0.6 min.
Then `CC(C)(N)C(=O)O` [2-AMINOISOBUTYRATE], with 0.67 min; and `Nc1ccccc1O` [2-AMINOPHENOL], with 0.9 min; and `Nc1ncccc1C(=O)O` [2-Aminopyridine-3-carboxylic acid], with 0.81 min.
Regarding `CSCCC(O)C(=O)O` (centres undefined) [2-HYDROXY-4-(METHYLTHIO)BUTANOATE], the LC retention time stood at 4.21 min.
Then `CCC(O)C(=O)[O-]` (centres undefined) [2-HYDROXYBUTYRATE], with 1.71 min.
In the case of `O=c1cccc[nH]1` [2-HYDROXYPYRIDINE], the LC retention time amounted to 1.6 min.
Then `CC(C)CC(O)C(=O)O` (centres undefined) [2-Hydroxyisocaproic acid], with 6.31 min; and `CC(C)C(O)(CC(=O)O)C(=O)O` (centres undefined) [2-Isopropylmalic acid], with 4.79 min; and `CC(CCC(=O)O)C(=O)O` (centres undefined) [2-METHYLGLUTARATE], with 4.4 min.
`Cc1ccccc1C(=O)NCC(=O)O` [2-Methylhippuric acid (ortho-Methylhippuric acid)]: the LC retention time was 5.31 min.
As for `Cc1ncccc1C(N)=O` [2-Methylnicotinamide], the LC retention time amounted to 0.69 min.
As to `O=C(O)CCCC(=O)C(=O)O` [2-OXOADIPATE], the LC retention time was 1.05 min.
The value for `CCC(=O)C(=O)[O-]` [2-OXOBUTANOATE] was 9.98 min; that for `NC(C(=O)O)c1ccccc1` (centres undefined) [2-Phenylglycine] was 0.83 min; that for `O=C(O)c1ccc2ccccc2n1` [2-QUINOLINECARBOXYLATE] was 4.64 min.
Consider `CCCCC(O)C(=O)O` (centres undefined) [2-hydroxycaproic acid], for which the LC retention time was found to be 5.43 min.
Take `O=C(O)C(=O)CCc1ccccc1` [2-oxo-4-phenyl-butyric acid]: the LC retention time came to 6.35 min.
In the case of `CC(C)(CC(=O)O)CC(=O)O` [3-3-Dimethylglutaric acid], the LC retention time was 5.04 min.
Consider `O=C(O)C(O)c1ccc(O)c(O)c1` (centres undefined) [3-4 DIHYDROXYMANDELATE], for which the LC retention time is 0.91 min.
`NC(Cc1ccc(O)c(O)c1)C(=O)O` [3-4-DIHYDROXY-L-PHENYLALANINE]: the LC retention time turned out to be 0.82 min.
For the molecule `O=C(O)c1ccc(O)c(O)c1` [3-4-DIHYDROXYBENZOATE], the LC retention time amounted to 3.49 min.
As for `O=C(O)Cc1ccc(O)c(O)c1` [3-4-DIHYDROXYPHENYLACETATE], the LC retention time worked out at 4.32 min.
Consider `OCC(O)c1ccc(O)c(O)c1` (centres undefined) [3-4-DIHYDROXYPHENYLGLYCOL], for which the LC retention time came out at 0.92 min.
Take `O=S(=O)(O)c1ccc(O)c(O)c1` [3-4-dihydroxybenzenesulfonic acid]: the LC retention time came to 0.84 min.
For `NC(Cc1cc(I)c(Oc2ccc(O)cc2)c(I)c1)C(=O)O` [3-5-DIIODO-L-THYRONINE], the LC retention time was determined as 6.31 min.
Regarding `O=C(O)c1cc(O)cc(O)c1` [3-5-Dihydroxybenzoic acid], the LC retention time was 3.57 min.
`O=C(O)CCc1ccc(O)cc1O` [3-(2-4-Dihydroxyphenyl)propionic acid]: the LC retention time was 4.83 min.
The value for `O=C([O-])CCc1ccccc1O` [3-(2-HYDROXYPHENYL)PROPANOATE] was 5.92 min; that for `Nc1cc(C(=O)O)ccc1[O-]` [3-AMINO-4-HYDROXYBENZOATE] was 0.82 min.
Consider `Nc1cc([O-])cc(C(=O)O)c1` [3-AMINO-5-HYDROXYBENZOATE], for which the LC retention time worked out at 0.81 min.
With `Nc1c(O)cccc1C(=O)O` [3-HYDROXYANTHRANILATE], the LC retention time was found to be 3.43 min.
For the molecule `O=Cc1cccc(O)c1` [3-HYDROXYBENZALDEHYDE], the LC retention time is 5.4 min.
Turning to `O=C(O)c1cccc(O)c1` [3-HYDROXYBENZOATE], the LC retention time worked out at 5.04 min.
As for `CC(O)(CC(=O)O)CC(=O)O` [3-HYDROXYMETHYLGLUTARATE], the LC retention time worked out at 1.48 min.
Then `O=C(O)Cc1cccc(O)c1` [3-HYDROXYPHENYLACETATE], with 5.11 min.
On to `O=C(O)C(O)c1cccc(O)c1` (centres undefined) [3-Hydroxymandelic acid], for which the LC retention time was found to be 2.66 min.
The value for `NC(=O)c1ncccc1O` [3-Hydroxypicolinamide] was 4.64 min; that for `COc1cc(C(O)C(=O)O)ccc1O` (centres undefined) [3-METHOXY-4-HYDROXYMANDELATE] was 2.15 min.
Then `COc1cc(CCN)ccc1O` [3-METHOXYTYRAMINE], with 2.47 min.
Then `CC1C(=O)Nc2ccccc21` (centres undefined) [3-METHYL-2-OXINDOLE], with 6.25 min; and `Cn1cnc(=N)c2[nH]cnc21` [3-METHYLADENINE], with 0.8 min.
With `Cn1cncc1CCN` [3-METHYLHISTAMINE], the LC retention time amounted to 0.57 min.
The value for `CC(CCC(=O)O)CC(=O)O` (centres undefined) [3-Methyladipic acid] was 5.01 min; that for `CC(C)=CC(=O)OC(CC(=O)[O-])C[N+](C)(C)C` [3-Methylcrotonyl-L-carnitine] was 4.71 min.
As for `Cc1cccnc1` [3-Methylpyridine (3-Picoline)], the LC retention time is 0.82 min.
As for `Cn1c(=O)[nH]c(=O)c2[nH]cnc21` [3-Methylxanthine], the LC retention time stood at 2.61 min.
With `N[C@@H](Cc1ccc(O)c([N+](=O)[O-])c1)C(=O)O` [3-NITRO-L-TYROSINE], the LC retention time stood at 3.77 min.
With `NC(CS(=O)O)C(=O)O` (centres undefined) [3-SULFINOALANINE], the LC retention time is 0.67 min.
On to `CC12CCC3C(CC=C4CC(O)CCC43C)C1CCC2=O` (centres undefined) [3-b-Hydroxyandrost-5-en-17-one (Dehydroepiandrosterone)], for which the LC retention time was 4.86 min.
Then `CC(C)C(C(=O)O)C(O)C(=O)O` (centres undefined) [3-isopropylmalic acid], with 4.68 min; and `CC(=O)NCCCC(=O)O` [4-ACETAMIDOBUTANOATE], with 1.69 min; and `Nc1ccc(C(=O)O)cc1` [4-AMINOBENZOATE], with 3.29 min.
